Assay results taken from PMC7168710, “Antibacterial Activity of Rationally Designed Antimicrobial Peptides” (International Journal of Microbiology, 2020).
In brackets after ≈: the same amount, converted by molar mass.

How the values were obtained:
[1] = test system: P. aeruginosa (ATCC 22108); assay: Growth inhibitory assay (time curve, OD620), P. aeruginosa; format: cell-based, Pseudomonas aeruginosa; settings: for Growth inhibition of P. aeruginosa over time: OD620 measured 3 to 8 h after treatment, 96-well plates, different peptide concentrations (25 μg/ml and lower)
Procedure: (§1) The growth curves for K. pneumoniae (ATCC 700603) and P. aeruginosa (ATCC 22108) treated with Molecule 3 and Molecule 7 over time were determined based on measurements taken at 620 nm at each collection time. Different concentrations of the peptide were added to the tested strains (K. pneumonia and P. aeruginosa), which were cultured in 96 well plates using the same method as used for the determination of the antimicrobial activity of the AMPs and the MIC.
(§2) In addition to the determined MICs, we investigated the rate at which the peptides influence the bacterial growth over time (Figures 1 and 2). The OD620 was measured from 3 to 8 h after treatment with a microplate reader, with Ampicillin as a positive control.

[2] = test system: methicillin-sensitive S. aureus (ATCC 25923); assay: Microtiter broth dilution MIC, MSSA; format: cell-based, Staphylococcus aureus; settings: for MIC, MSSA: microtiter broth dilution (CLSI), TSB, 0.5 McFarland, 24 h 37°C, INT 3 h, absorbance 620 nm, MIC = about 90% killing of inoculum, triplicate, repeated three times; for Sensitivity of MSSA (ATCC 25923) to the peptide: microtiter screening, up to 500 μg/ml
Procedure: (§3) The antibacterial activity of the putative antimicrobial peptides was carried out on Staphylococcus aureus spp., a Gram-positive bacterium obtained from the American Type Culture Collection (ATCC), with the S. aureus spp. comprising of the methicillin-sensitive S. aureus (ATCC 25923) and the methicillin-resistant S. aureus (ATCC 33591) strains. The other bacterial strains tested were K. pneumoniae (ATCC 700603) and P. aeruginosa (ATCC 22108) which are Gram-negative bacteria.
(§4) A stock solution of AMPs was prepared by dissolving an amount of AMPs in sterile distilled water (dH2O), and the various AMP working concentrations used in the microtiter broth dilution assay were prepared in two-fold serial dilutions starting at a concentration of 500 μg/ml to 1.5625 μg/ml. Ampicillin was utilized as the positive control in this assay and a working stock solution of 100 μg/ml was prepared in distilled water.
(§5) The microtiter broth dilution method was employed to measure the antibacterial activity of the AMP's. The assay was performed according to the standards and guidelines as stipulated in the Clinical and Laboratory Standards Institute (CLSI). In brief, the test microorganisms (MRSA (ATCC 33591), MSSA (ATCC 25923), K. pneumoniae (ATCC 700603), and P. aeruginosa (ATCC 22108)) were grown to the midlogarithmic phase in Tryptic Soy Broth (TSB) on a shaker set at 37°C and shaking at 150 rpm. The turbidity was adjusted to a 0.5 McFarland standard with a final volume of 10 ml. From the stock of prepared AMP solutions, various working peptide concentrations (500 μg/ml to 1.5625 μg/ml) were prepared, and a mixture of the bacteria with the peptides was incubated in a 96 well flat bottom plate for 24 h at 37°C. Following 24 h incubation, 40 μl of 2-(4-iodophenyl)-3-(4-nitrophenyl)-5-phenyl-2H-tetrazolium (INT) was added to each well and incubated again for 3 h. Absorbance readings were taken at 620 nm on a microtiter plate reader (Omega®POLARstar BMG Labtech, USA).
(§6) All the antibacterial assays of the AMPs were prepared in triplicate, and the experiments were repeated three times to ensure the reproducibility of the testing. Absorbance results were exported into an Excel file, where they were transformed into a percentage, in a Normalizing process. The MIC of each peptide was defined as the concentration resulting in about 90% killing of the initial inoculums.

[3] = test system: K. pneumoniae (ATCC 700603); assay: Growth inhibitory assay (time curve, OD620), K. pneumoniae; format: cell-based, Klebsiella pneumoniae; settings: for Growth inhibition of K. pneumoniae over time: OD620 measured 3 to 8 h after treatment, 96-well plates, different peptide concentrations (25 μg/ml and lower)
Procedure: as §1, §2

[4] = test system: methicillin-resistant S. aureus (ATCC 33591); assay: Microtiter broth dilution MIC, MRSA; format: cell-based, Staphylococcus aureus; settings: for MIC, MRSA: microtiter broth dilution (CLSI), TSB, 0.5 McFarland, 24 h 37°C, INT 3 h, absorbance 620 nm, MIC = about 90% killing of inoculum, triplicate, repeated three times; for Sensitivity of MRSA (ATCC 33591) to the peptide: microtiter screening, up to 500 μg/ml
Procedure: as §3, §4, §5, §6

[5] = test system: K. pneumoniae (ATCC 700603); assay: Microtiter broth dilution MIC, K. pneumoniae; format: cell-based, Klebsiella pneumoniae; settings: for MIC, K. pneumoniae: microtiter broth dilution (CLSI), TSB, 0.5 McFarland, 24 h 37°C, INT 3 h, absorbance 620 nm, MIC = about 90% killing of inoculum, triplicate, repeated three times
Procedure: as §3, §4, §5, §6

[6] = test system: P. aeruginosa (ATCC 22108); assay: Microtiter broth dilution MIC, P. aeruginosa; format: cell-based, Pseudomonas aeruginosa; settings: for MIC, P. aeruginosa: microtiter broth dilution (CLSI), TSB, 0.5 McFarland, 24 h 37°C, INT 3 h, absorbance 620 nm, MIC = about 90% killing of inoculum, triplicate, repeated three times
Procedure: as §3, §4, §5, §6

HepG2 cell line = assay: MTT cytotoxicity assay, HepG2; format: cell-based, human; settings: 48 h treatment; for cell lines inhibition, HepG2: 25 μg/ml peptide; for Cell viability, HepG2: 100 μg/ml peptide, one value given for both peptides, repeated three times
Procedure: (§7) The cytotoxicity activity of the AMPs was measured by using the 3-(4,5-dimethylthiazol-2-yl)-2,5- diphenyltetrazolium bromide (MTT) assay as described by Freimoser. In brief, after the trypsinisation of HEK293T and HepG2 cells, 1 × 10^4 cells/well were seeded in a 96-well sterile plate and grown to confluence in Dulbecco's modified Eagle's medium containing 10% fetal calf serum. Molecule 3 and Molecule 7 were each added to the wells at different concentrations (10 μg/ml, 25 μg/ml, 50 μg/ml, and 100 μg/ml). Cells treated with 6% DMSO served as positive control. After 48 h after treatment with the peptides, 20 μl of MTT solution was added to each well, and the plates were incubated in a humidified incubator for 3 h in 5% CO2 at 37°C. After incubation, the media was removed and dimethyl sulfoxide (DMSO) (100 μl per well) was added into each well and the plate was again incubated in a shaker at 37°C, 5% CO2 incubator for 10 min. The plates were gently swirled for 10 min at room temperature to dissolve the precipitate. The absorbance was determined using a multiplate reader (Omega®POLARstar BMG Labtech, USA) at a wavelength of 570 nm, 600 nm, and 630 nm.
(§8) The assay was repeated three times to confirm the reproducibility of the experiment. The final absorbance of the treated cells was obtained by subtracting the background absorbance of the multi-well plate at 630 nm and from the 570 nm measurements. The percentage cell viability was calculated using the following formulae:(1) Cell viability %=OD570−OD630Treated sample/OD570−OD630Untreated control×100.
(§9) Absorbance results were exported into an Excel file, where they were transformed into a percentage, in a process called normalizing.

HEK293T cell line = assay: MTT cytotoxicity assay, HEK293T; format: cell-based, human; settings: 48 h treatment; for cell lines inhibition, HEK293T: 25 μg/ml peptide; for Cell viability, HEK 293T: 100 μg/ml peptide, one value given for both peptides, repeated three times
Procedure: as §7, §8, §9

[7] = 100 μg/ml, OD620 time curve 3 to 8 h

| Compound | Growth inhibition of P. aeruginosa, positive control [1, 7] | MIC ([2]; Staphylococcus aureus, read-out: MIC, MSSA) [µg/mL] | Growth inhibition of K. pneumoniae, positive control [3, 7] | MIC ([4]; Staphylococcus aureus, read-out: MIC, MRSA) [µg/mL] | MIC ([5]; Klebsiella pneumoniae, ATCC700603, read-out: MIC, K. pneumoniae) [µg/mL] | MIC ([6]; Pseudomonas aeruginosa, ATCC22108, read-out: MIC, P. aeruginosa) [µg/mL] | MIC, MSSA [2] [µg/mL] | MIC, MRSA [4] [µg/mL] | MIC, K. pneumoniae [5] [µg/mL] | MIC, P. aeruginosa [6] [µg/mL] | Growth inhibition of P. aeruginosa over time [1] | Sensitivity of MSSA (ATCC 25923) to the peptide [2] | Growth inhibition of K. pneumoniae over time [3] | cell lines inhibition, HepG2 (HepG2 cell line) | Cell viability, HepG2 (HepG2 cell line) [%] | Sensitivity of MRSA (ATCC 33591) to the peptide [4] | cell lines inhibition, HEK293T (HEK293T cell line) | Cell viability, HEK 293T (HEK293T cell line) [%] | Period of growth suppression of K. pneumoniae ([3]; peptide concentration 6.25 μg/ml, OD620 time curve) [h] |
| --- | --- | --- | --- | --- | --- | --- | --- | --- | --- | --- | --- | --- | --- | --- | --- | --- | --- | --- | --- |
| CC1(C)S[C@@H]2[C@H](NC(=O)[C@H](N)c3ccccc3)C(=O)N2[C@H]1C(=O)O [Ampicillin, reference compound] | could inhibit the growth | > 100 | failed to inhibit the growth | > 100 | > 100 | 100 (≈ 286 µM) |  |  |  |  |  |  |  |  |  |  |  |  |  |
| CLKSGAICHPVFCPRRYKQIGTCGLPGTKCCKKP [Molecule 8, putative anti-HIV antimicrobial peptide, chemically synthesized by solid-phase method] |  |  |  |  |  |  | >500 | >500 | >500 | >500 |  |  |  |  |  |  |  |  |  |
| CLRYKKPECQSDWQCPGKKRCCPDTCGIKCLDPVDTPNPTRRKPGKCPVTYGQCLMLNPPNFCEMDGQCKRDLKCCMGM [Molecule 1, putative anti-HIV antimicrobial peptide, chemically synthesized by solid-phase method] |  |  |  |  |  |  | >500 | >500 | 500 | >500 |  |  |  |  |  |  |  |  |  |
| RWKIFKKIEKMGRNIRDGIVKAGPAIEVLGSAKAIGK [Molecule 7, putative anti-HIV antimicrobial peptide, chemically synthesized by solid-phase method] |  |  |  |  |  |  | >500 | >500 | 12.5 | 6.25 | could not inhibit P. aeruginosa growth at concentrations lower than the MIC | insensitive | could not suppress the growth of K. pneumoniae (ATCC 700603) at concentrations lower than the respective MIC values | more than 90% | 79.5 | insensitive | more than 90% | 59.29 |  |
| RWKLFKKIEKVGRNVRDGLIKAGPAIAVIGQAKSLGK [Molecule 3, putative anti-HIV antimicrobial peptide, chemically synthesized by solid-phase method] |  |  |  |  |  |  | >500 | >500 | 12.5 | 6.25 | able to inhibit P. aeruginosa at all the concentrations and for the duration of the experiment | insensitive | able to suppress the growth of K. pneumoniae (ATCC 700603) at concentrations equal to the MIC (12.5 μg/ml) and 2x MIC | more than 90% | 79.5 | insensitive | more than 90% | 59.29 | 4 |
| WNPFKELEKAGQRVRDAIISAKPAVDVVGQATAIIK [Molecule 10, putative anti-HIV antimicrobial peptide, chemically synthesized by solid-phase method] |  |  |  |  |  |  | >500 | >500 | 500 | >500 |  |  |  |  |  |  |  |  |  |
